# From DBAASP
# “And” between values parts separate entries of the source, which are not always exact repeats. Equal values may be shown once.
# How the values were obtained:
# Experiment in all cases: ≥ marks a high value that may be exact or a test limit, other limits are often not marked, values filed in µg/mL are converted to µM
# [1] = system: Enterococcus faecalis ATCC 29212
# Escherichia coli UB1005 = system: Escherichia coli UB1005
# [2] = system: Staphylococcus aureus ATCC 43300
# [3] = system: Pseudomonas aeruginosa ATCC 27853
# [4] = system: Staphylococcus aureus ATCC 29213
# [5] = system: Salmonella typhimurium ATCC 7731
# [6] = system: Salmonella enterica subsp. enterica serovar Pullorum C79-13
# [7] = system: Staphylococcus epidermidis ATCC 12228
# [8] = system: Bacillus subtilis CMCC 63501
# Escherichia coli ML-35 = system: Escherichia coli ML-35
# [9] = system: Salmonella enterica subsp. enterica serovar Typhimurium ATCC 14028
# Bacillus megaterium = system: Bacillus megaterium
# [10] = system: Escherichia coli ATCC 25922
# [11] = system: Staphylococcus aureus ATCC 25923
# [12] = system: Micrococcus luteus ATCC 4698
MIC [1] [µM],MIC (Escherichia coli UB1005) [µM],MIC [2] [µM],MIC [3] [µM],MIC [4],MIC [5] [µM],MIC [6] [µM],MIC [7] [µM],MIC [8] [µM],MIC (Escherichia coli ML-35) [µM],MIC [9] [µM],MIC (Bacillus megaterium) [µM],MIC [10] [µM],MIC [11] [µM],MIC [12] [µM],Structure (SMILES)
16,8,8,8,8 µM and 16 µM,8,8,8,16,–,–,–,–,–,–,CC[C@H](C)[C@H](N)C(=O)N[C@@H](Cc1cnc[nH]1)C(=O)N[C@@H](CCCCN)C(=O)N[C@@H](Cc1ccccc1)C(=O)N[C@@H](Cc1c[nH]c2ccccc12)C(=O)N[C@@H](CCCN=C(N)N)C(=O)N[C@@H](CS)C(=O)N[C@@H](CCCN=C(N)N)C(=O)N[C@@H](CCCN=C(N)N)C(=O)N[C@@H](CCCN=C(N)N)C(=O)N[C@@H](Cc1ccccc1)C(=O)N[C@@H](CS)C(=O)N[C@@H](CCCN=C(N)N)C(=O)N[C@@H](Cc1c[nH]c2ccccc12)C(=O)N[C@@H](Cc1ccccc1)C(=O)N[C@@H](CCCCN)C(=O)N[C@@H](Cc1cnc[nH]1)C(=O)N[C@H](C(N)=O)[C@@H](C)CC [IHKFWRCRRRFCRWFKHI]
–,–,–,> 64,–,–,–,–,–,≥ 64,> 64,≥ 64,> 64,> 64,–,CC[C@H](C)[C@H](NC(=O)[C@H](CCCCN)NC(=O)[C@H](CCCCN)NC(=O)[C@H](CC(C)C)NC(=O)[C@H](CCCCN)NC(=O)[C@H](CCC(=O)O)NC(=O)[C@H](CCCCN)NC(=O)[C@H](CCCCN)NC(=O)[C@H](CCCCN)NC(=O)[C@H](CC(N)=O)NC(=O)[C@H](CCCN=C(N)N)NC(=O)[C@H](Cc1ccccc1)NC(=O)[C@H](CCCCN)NC(=O)[C@H](CCCN=C(N)N)NC(=O)[C@H](CCCCN)NC(=O)[C@H](CCCN=C(N)N)NC(=O)[C@H](CCCCN)NC(=O)[C@H](CCCN=C(N)N)NC(=O)[C@H](CC(C)C)NC(=O)CN)C(=O)O [GLRKRKRKFRNKKKEKLKKI]
16,2,2,16,–,8,2,16,8,–,–,–,–,–,–,CC(C)C[C@H](NC(=O)[C@H](CCCNC(=N)N)NC(=O)CNC(=O)CNC(=O)[C@@H](N)CCCNC(=N)N)C(=O)N[C@@H](CS)C(=O)N[C@@H](Cc1ccc(O)cc1)C(=O)N[C@@H](CS)C(=O)N[C@@H](CCCNC(=N)N)C(=O)N[C@@H](CCCNC(=N)N)C(=O)N[C@@H](CCCNC(=N)N)C(=O)N[C@@H](Cc1ccccc1)C(=O)N[C@@H](CS)C(=O)N[C@H](C(=O)N[C@@H](CS)C(=O)N[C@H](C(=O)NCC(=O)N[C@@H](CCCNC(=N)N)C(N)=O)C(C)C)C(C)C [RGGRLCYCRRRFCVCVGR]
–,–,–,–,–,–,–,–,–,–,–,–,–,–,≥ 75,CC(C)C[C@H](NC(=O)[C@H](CCCN=C(N)N)NC(=O)[C@H](Cc1cnc[nH]1)NC(=O)[C@H](Cc1c[nH]c2ccccc12)NC(=O)CNC(=O)CNC(=O)[C@@H](N)CO)C(=O)N[C@@H](CCCN=C(N)N)C(=O)N[C@@H](CO)C(=O)O [SGGWHRLRS]
